Data set [1] deals with Echinochloa oryzoides (Ard.) Fritsch. The experiment in a line: Preemergence weed control under flooded paddy conditions, ECHORC (Watergrass (Calif.)). It is filed as in vivo. The settings on record: flooded paddy; for ECHORC herbicidal rating: preemergence, rated three to four weeks after treatment; for ECHORC: preemergence weeds, herbicidal effect rating 0-9, three to four weeks after treatment.

The subject of the next data set is Cyperus iria. In words: Preemergence weed control under flooded paddy conditions, CYPIR (Rice Flatsedge). Format: in vivo. The settings on record: flooded paddy; for CYPIR herbicidal rating: preemergence, rated three to four weeks after treatment; for CYPIR: preemergence weeds, herbicidal effect rating 0-9, three to four weeks after treatment.
Data set [2] deals with Cyperus serotinus, Rottb. The experiment in a line: Preemergence weed control under flooded paddy conditions, CYPSE (Flatsedge). Format: in vivo. The settings on record: for CYPSE herbicidal rating: preemergence, rated three to four weeks after treatment; for CYPSE: preemergence weeds, herbicidal effect rating 0-9, three to four weeks after treatment.
The test system of data set [3] is Monochoria vaginalis, Presl. The experiment in a line: Preemergence weed control under flooded paddy conditions, MOOVA (Monochoria). The following applies: flooded paddy; for MOOVA herbicidal rating: preemergence, rated three to four weeks after treatment; for MOOVA: preemergence weeds, herbicidal effect rating 0-9, three to four weeks after treatment. It is filed as in vivo.

The next data set deals with Sagittaria pygmaea, L. In words: Preemergence weed control under flooded paddy conditions, SAGPY (Arrowhead (Pygmaea)). It is filed as in vivo. The settings on record: flooded paddy; for SAGPY herbicidal rating: preemergence, rated three to four weeks after treatment; for SAGPY: preemergence weeds, herbicidal effect rating 0-9, three to four weeks after treatment.
Data set [4] relates to Oryza sativa, (L.) Tebonnet. The experiment in a line: Rice tolerance to post-transplant applications under flooded paddy conditions (Example 187), ORYSAT (Rice, Tebonnet). The following applies: for ORYSAT herbicidal rating (rice tolerance): rated three to four weeks after treatment; for ORYSAT: herbicidal effect rating 0-9, three to four weeks after treatment.

Take `CC(C)OC(=O)C(C)(C)c1nsc2ccc(-n3c(=O)cc(C(F)(F)F)n(C)c3=O)cc12` [Example 489, 1,2-Benzisothiazole-3-acetic acid, 5-[3,6-dihydro-3-methyl-2,6-dioxo-4-(trifluoromethyl)-1(2H)-pyrimidinyl]-alpha,alpha-dimethyl-, isopropyl ester]: the ECHORC herbicidal rating is 7.0 in data set [1] (0.0320 kg/ha), 7.0 in data set [1] (0.0620 kg/ha), 9.0 in data set [1] (0.1250 kg/ha) and 9.0 in data set [1] (0.2500 kg/ha). The CYPIR herbicidal rating in the data set on Cyperus iria (0.0320 kg/ha) came to 6.0; in the data set on Cyperus iria (0.0620 kg/ha), 9.0; with Cyperus iria (0.1250 kg/ha), 9.0; with Cyperus iria (0.2500 kg/ha), 9.0. Moreover, the CYPSE herbicidal rating turned out to be 6.0 in data set [2] (0.0320 kg/ha), 7.0 in data set [2] (0.0620 kg/ha), 9.0 in data set [2] (0.1250 kg/ha) and 9.0 in data set [2] (0.2500 kg/ha). The MOOVA herbicidal rating in data set [3] (0.0320 kg/ha), in data set [3] (0.0620 kg/ha), in data set [3] (0.1250 kg/ha) and in data set [3] (0.2500 kg/ha) was 9.0 in each case. Also, the SAGPY herbicidal rating worked out at 6.0 in the data set with Sagittaria pygmaea, L. (0.0320 kg/ha); 9.0 in the data set on Sagittaria pygmaea, L. (0.0620 kg/ha); 9.0 in the data set on Sagittaria pygmaea, L. (0.1250 kg/ha); 9.0 with Sagittaria pygmaea, L. (0.2500 kg/ha). In addition, the “ORYSAT herbicidal rating (rice tolerance)” value in data set [4] (0.0320 kg/ha) is reported as 5.0; in data set [4] (0.0620 kg/ha) it was 6.0; in data set [4] (0.1250 kg/ha), 6.0; in data set [4] (0.2500 kg/ha) it was 6.0.
For `COC(=O)CN(C(=O)c1nsc2ccc(-n3c(=O)cc(C(F)(F)F)n(C)c3=O)cc12)S(=O)(=O)Cc1ccccc1` [Example 441, Glycine, N-(benzylsulfonyl)-N-{{5-[3,6-dihydro-3-methyl-2,6-dioxo-4-(trifluoromethyl)-1(2H)-pyrimidinyl]-1,2-benzisothiazol-3-yl}carbonyl}-, methyl ester], the ECHORC in data set [1] (0.0320 kg/ha) is reported as 0.0; in data set [1] (0.0620 kg/ha), 0.0; in data set [1] (0.1250 kg/ha), 0.0; in data set [1] (0.2500 kg/ha) it was 3.0. Further, the CYPIR in the data set with Cyperus iria (0.0320 kg/ha) turned out to be 4.0; with Cyperus iria (0.0620 kg/ha), 6.0; with Cyperus iria (0.1250 kg/ha), 9.0; in the data set with Cyperus iria (0.2500 kg/ha), 9.0. Further, the CYPSE in data set [2] (0.0620 kg/ha) is on record as 0.0; in data set [2] (0.1250 kg/ha), 4.0; in data set [2] (0.2500 kg/ha) it was 7.0. Besides, the MOOVA in data set [3] (0.0320 kg/ha), in data set [3] (0.0620 kg/ha), in data set [3] (0.1250 kg/ha) and in data set [3] (0.2500 kg/ha) was 9.0 throughout. Besides, the SAGPY was 0.0 in the data set on Sagittaria pygmaea, L. (0.0320 kg/ha); 2.0 in the data set on Sagittaria pygmaea, L. (0.0620 kg/ha); 3.0 with Sagittaria pygmaea, L. (0.1250 kg/ha); 6.0 in the data set on Sagittaria pygmaea, L. (0.2500 kg/ha). For the same compound, the ORYSAT in data set [4] (0.0320 kg/ha) is listed as 0.0; in data set [4] (0.0620 kg/ha), 0.0; in data set [4] (0.1250 kg/ha), 2.0; in data set [4] (0.2500 kg/ha), 3.0.
